Results on 24 compounds are retold here after patent publication US20100311714A1, “1H-IMIDAZO[4,5-c]QUINOLINONE COMPOUNDS” (priority 2009, published 2010).

≈ marks a conversion by molar mass, not a printed value. A value given as a limit tells only on which side of the number the result lay.

The subject of data set [1] is PKB Ser473 phosphorylation in Rat1-myr-HA-p110 alpha cells. Kind of data set: Reverse protein array, PKB Ser473 phosphorylation in Rat1-myr-HA-p110 alpha cells. The class given is cell-based. The settings on record: Rattus norvegicus, 0.5 h, 30 minutes compound incubation, read-out: p-PKB/IC50_alpha.
Data set [2] relates to PKB Ser473 phosphorylation in Rat1-myr-HA-p110 beta cells. Kind of data set: Reverse protein array, PKB Ser473 phosphorylation in Rat1-myr-HA-p110 beta cells. The following applies: Rattus norvegicus, 0.5 h, 30 minutes compound incubation, read-out: p-PKB/IC50_beta. The data set is classed as cell-based.
The nature of data set [3]: High-throughput equilibrium solubility at pH 6.8. The data set is classed as physicochemical. The settings on record: pH 6.8, aqueous buffer, thermodynamic from solid; read-out: HT-Eq Sol/pH 6.8. A digest of the protocol: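 Following the procedure of Zhou et al. (2007), compound solubility was determined at pH 6.8.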

As to `COc1ncccc1-n1c(=O)n(C)c2cnc3ccc(-c4cnc5c(ccn5C)c4)cc3c21` [Example 1.7, 1-(2-Methoxy-pyridin-3-yl)-3-methyl-8-(1-methyl-1H-pyrrolo[2,3-b]pyridin-5-yl)-1,3-dihydro-imidazo[4,5-c]quinolin-2-one], the IC50 worked out at 5.44 nM in data set [1] and 29.6 nM in data set [2]. Moreover, the solubility thermodynamic in data set [3] worked out at 3 µg/mL (≈ 6.87 µM).
On to `COc1ncccc1-n1c(=O)n(C)c2cnc3ccc(-c4ccc(F)nc4)cc3c21` [Example 1.8, 8-(6-Fluoro-pyridin-3-yl)-1-(2-methoxy-pyridin-3-yl)-3-methyl-1,3-dihydro-imidazo[4,5-c]quinolin-2-one], for which the IC50 came out at 97.6 nM in data set [1] and 324 nM in data set [2]. Moreover, in data set [3], the solubility thermodynamic was found to be 4 µg/mL (≈ 9.97 µM).
The like results for `COc1ncccc1-n1c(=O)n(C)c2cnc3ccc(-c4cnc(N(C)C)nc4)cc3c21` [Example 1.9, 8-(2-Dimethylamino-pyrimidin-5-yl)-1-(2-methoxy-pyridin-3-yl)-3-methyl-1,3-dihydro-imidazo[4,5-c]quinolin-2-one] were, in that order, 57.6 nM, 60.3 nM and 3 µg/mL (≈ 7.02 µM).
The like results for `CCOc1ccc(-c2ccc3ncc4c(c3c2)n(-c2cccnc2C)c(=O)n4C)cn1` [Example 2.1, 8-(6-Ethoxy-pyridin-3-yl)-3-methyl-1-(2-methyl-pyridin-3-yl)-1,3-dihydro-imidazo[4,5-c]quinolin-2-one] were, in that order, 6.31 nM, 18.3 nM and 3 µg/mL (≈ 7.29 µM).
The like results for `CNc1ncc(-c2ccc3ncc4c(c3c2)n(-c2cccnc2C)c(=O)n4C)cn1` [Example 2.2, 3-Methyl-8-(2-methylamino-pyrimidin-5-yl)-1-(2-methyl-pyridin-3-yl)-1,3-dihydro-imidazo[4,5-c]quinolin-2-one] were, in that order, 15.9 nM, 14.7 nM and 14 µg/mL (≈ 35.2 µM).
For the compound `CCNc1cc(-c2ccc3ncc4c(c3c2)n(-c2ccc(F)nc2C)c(=O)n4C)cnc1CO` [Example 7.9, 8-(5-Ethylamino-6-hydroxymethyl-pyridin-3-yl)-1-(6-fluoro-2-methyl-pyridin-3-yl)-3-methyl-1,3-dihydro-imidazo[4,5-c]quinolin-2-one], the figures for the IC50 in data set [1] and in data set [2] were below 4.57 nM and 10 nM, respectively. The solubility thermodynamic in data set [3] turned out to be 299 µg/mL (≈ 652 µM).
As to `COc1ccc(-n2c(=O)n(C)c3cnc4ccc(-c5ccc6nccn6c5)cc4c32)c(OC)n1` [Example 8.10, 1-(2,6-Dimethoxy-pyridin-3-yl)-8-imidazo[1,2-a]pyridin-6-yl-3-methyl-1,3-dihydro-imidazo[4,5-c]quinolin-2-one], in data set [1], the IC50 worked out at 20.5 nM. Besides, in data set [3], the solubility thermodynamic amounted to 47 µg/mL (≈ 104 µM).
The like results for `Cc1cc(F)ncc1-n1c(=O)n(C)c2cnc3ccc(-c4cnc5c(ccn5C)c4)cc3c21` [Example 16.5, 1-(6-Fluoro-4-methyl-pyridin-3-yl)-3-methyl-8-(1-methyl-1H-pyrrolo[2,3-b]pyridin-5-yl)-1,3-dihydro-imidazo[4,5-c]quinolin-2-one] were, in that order, 18.4 nM and 2 µg/mL (≈ 4.56 µM).
As for `CCOc1ccc(-c2ccc3ncc4c(c3c2)n(-c2cncc(C)c2)c(=O)n4C)cn1` [Example 17.1, 8-(6-Ethoxy-pyridin-3-yl)-3-methyl-1-(5-methyl-pyridin-3-yl)-1,3-dihydro-imidazo[4,5-c]quinolin-2-one], the figures for the IC50 in data set [1] and in data set [2] were 53.4 nM and 202 nM, respectively.
For `CCNc1cc(-c2ccc3ncc4c(c3c2)n(-c2ccc(OC)nc2Cl)c(=O)n4C)cnc1C` [Example 18.1, 1-(2-Chloro-6-methoxy-pyridin-3-yl)-8-(5-ethylamino-6-methyl-pyridin-3-yl)-3-methyl-1,3-dihydro-imidazo[4,5-c]quinolin-2-one], in data set [1], the IC50 is below 4.57 nM. In addition, the solubility thermodynamic in data set [3] stood at 10 µg/mL (≈ 21.1 µM).
The like results for `COc1ccc(-n2c(=O)n(C)c3cnc4ccc(-c5cnc(N(C)C)nc5)cc4c32)c(Cl)n1` [Example 18.3, 1-(2-Chloro-6-methoxy-pyridin-3-yl)-8-(2-dimethylamino-pyrimidin-5-yl)-3-methyl-1,3-dihydro-imidazo[4,5-c]quinolin-2-one] were, in that order, 7.1 nM and 37 µg/mL (≈ 80.1 µM).
For the compound `CNc1ncc(-c2ccc3ncc4c(c3c2)n(-c2ccc(N(C)C)nc2C)c(=O)n4C)cn1` [Example 19.1, 1-(6-Dimethylamino-2-methyl-pyridin-3-yl)-3-methyl-8-(2-methylamino-pyrimidin-5-yl)-1,3-dihydro-imidazo[4,5-c]quinolin-2-one], the solubility thermodynamic in data set [3] is 7 µg/mL (≈ 15.9 µM).
On to `CCOc1ccc(-c2ccc3ncc4c(c3c2)n(-c2ccc(NC(=O)COC)nc2C)c(=O)n4C)cn1` [Example 20.2, N-{5-[8-(6-Ethoxy-pyridin-3-yl)-3-methyl-2-oxo-2,3-dihydro-imidazo[4,5-c]quinolin-1-yl]-6-methyl-pyridin-2-yl}-2-methoxy-acetamide], for which the IC50 in data set [1] is 50 nM; in data set [2] it was 210 nM.
The like results for `CNc1ncc(-c2ccc3ncc4c(c3c2)n(-c2ccc(NC(=O)COC)nc2C)c(=O)n4C)cn1` [Example 20.3, 2-Methoxy-N-{6-methyl-5-[3-methyl-8-(2-methylamino-pyrimidin-5-yl)-2-oxo-2,3-dihydro-imidazo[4,5-c]quinolin-1-yl]-pyridin-2-yl}-acetamide] were, in that order, 6.6 nM and 16.3 nM.
The like results for `CNc1ccc(-c2ccc3ncc4c(c3c2)n(-c2ccc(NC(=O)COC)nc2C)c(=O)n4C)cn1` [Example 20.4, 2-Methoxy-N-{6-methyl-5-[3-methyl-8-(6-methylamino-pyridin-3-yl)-2-oxo-2,3-dihydro-imidazo[4,5-c]quinolin-1-yl]-pyridin-2-yl}-acetamide] were, in that order, 5.6 nM and 9.5 nM.
As for `COCC(=O)Nc1ccc(-n2c(=O)n(C)c3cnc4ccc(-c5cncc(OC(C)C)c5)cc4c32)c(C)n1` [Example 20.5, N-{5-[8-(5-Isopropoxy-pyridin-3-yl)-3-methyl-2-oxo-2,3-dihydro-imidazo[4,5-c]quinolin-1-yl]-6-methyl-pyridin-2-yl}-2-methoxy-acetamide], the IC50 stood at 90.2 nM in data set [1] and 167 nM in data set [2].
The like results for `COCCOc1ccc(-n2c(=O)n(C)c3cnc4ccc(-c5cncc(N6CCC6)c5)cc4c32)c(C)n1` [Example 22.2, 8-(5-Azetidin-1-yl-pyridin-3-yl)-1-[6-(2-methoxy-ethoxy)-2-methyl-pyridin-3-yl]-3-methyl-1,3-dihydro-imidazo[4,5-c]quinolin-2-one] were, in that order, 6.4 nM and 32.1 nM.
`COCCOc1ccc(-n2c(=O)n(C)c3cnc4ccc(-c5cnc(COC)c(OC)c5)cc4c32)c(C)n1` [Example 22.3, 1-[6-(2-Methoxy-ethoxy)-2-methyl-pyridin-3-yl]-8-(5-methoxy-6-methoxymethyl-pyridin-3-yl)-3-methyl-1,3-dihydro-imidazo[4,5-c]quinolin-2-one]: the IC50 was found to be 24.2 nM in data set [1] and 77.6 nM in data set [2].
The like results for `Cc1nc(N2CC(F)(F)C2)ccc1-n1c(=O)n(C)c2cnc3ccc(-c4cncc(C(C)(C)O)c4)cc3c21` [Example 24.2, 1-[6-(3,3-Difluoro-azetidin-1-yl)-2-methyl-pyridin-3-yl]-8-[5-(1-hydroxy-1-methyl-ethyl)-pyridin-3-yl]-3-methyl-1,3-dihydro-imidazo[4,5-c]quinolin-2-one] were, in that order, 17.5 nM and 30.7 nM.
The like results for `CCNc1cc(-c2ccc3ncc4c(c3c2)n(-c2ccc(N3CC(F)(F)C3)nc2C)c(=O)n4C)cnc1CO` [Example 24.3, 1-[6-(3,3-Difluoro-azetidin-1-yl)-2-methyl-pyridin-3-yl]-8-(5-ethylamino-6-hydroxymethyl-pyridin-3-yl)-3-methyl-1,3-dihydro-imidazo[4,5-c]quinolin-2-one] were, in that order, 5.9 nM and below 4.57 nM.
The like results for `CNc1ccc(-c2ccc3ncc4c(c3c2)n(-c2ccc(N3CCCC3)nc2C)c(=O)n4C)cn1` [Example 25.1, 3-Methyl-8-(6-methylamino-pyridin-3-yl)-1-(2-methyl-6-pyrrolidin-1-yl-pyridin-3-yl)-1,3-dihydro-imidazo[4,5-c]quinolin-2-one] were, in that order, 11.5 nM and 10.7 nM.
With `Cc1nc(N2CCC(O)C2)ccc1-n1c(=O)n(C)c2cnc3ccc(-c4cncc(OC(C)C)c4)cc3c21` (centres unmarked) [Example 27.1, 1-[6-(3-Hydroxy-pyrrolidin-1-yl)-2-methyl-pyridin-3-yl]-8-(5-isopropoxy-pyridin-3-yl)-3-methyl-1,3-dihydro-imidazo[4,5-c]quinolin-2-one], the IC50 came out at 41.1 nM in data set [1] and 85.7 nM in data set [2].
As for `CNc1cc(-c2ccc3ncc4c(c3c2)n(-c2ccc(C(F)(F)F)nc2C)c(=O)n4C)cnc1CO` [Example 33.2, 8-(6-Hydroxymethyl-5-methylamino-pyridin-3-yl)-3-methyl-1-(2-methyl-6-trifluoromethyl-pyridin-3-yl)-1,3-dihydro-imidazo[4,5-c]quinolin-2-one], the IC50 in data set [1] is 5.2 nM; in data set [2], below 4.47 nM.
The like results for `Cc1nc(N2CC(F)(F)C(F)(F)C2)ccc1-n1c(=O)n(C)c2cnc3ccc(-c4cncc(C(C)(C)O)c4)cc3c21` [Example 35.1, 8-[5-(1-Hydroxy-1-methyl-ethyl)-pyridin-3-yl]-3-methyl-1-[2-methyl-6-(3,3,4,4-tetrafluoro-pyrrolidin-1-yl)-pyridin-3-yl]-1,3-dihydro-imidazo[4,5-c]quinolin-2-one] were, in that order, 14.6 nM and 27.9 nM.
